# Marks after values point to notes of the source that are not given here.
# Key:
# [1] = tested on: HIV NL4-3.tCD34.R-.E- in SupT1 cells; test: microbe, parasite or virus in culture; assay type: cell-based; conditions: Human immunodeficiency virus 1, NL43, SUP-T1, read-out: inhibition of reactivation from latency
# [2] = tested on: NL4.3 virus in primary CD4+ T cells
# From the text: Next we evaluated the multimodal effect of LEDGIN treatment on integration, assembly and reactivation in a multiple round reactivation model using WT HIV in resting CD4+ T-cells in order to model the in vivo situation. PHA/IL-2 activated primary (resting) CD4+ T cells were infected with NL4.3 virus in the presence of submicromolar concentrations of LEDGINs. At day four post infection (p.i.) LEDGINs were removed and cells were reseeded in the presence of PMA and PHA. Virus production upon reactivation was measured at day 7 p.i. by p24 ELISA.
# Resting CD4+ T cells were purified using a custom-made EasySep negative selection kit (Stem Cell Technologies; 19052 cocktail, with the addition of CD25, CD69, and HLA-DR antibodies (catalogue number 19309VK)). […] Four days post-infection cells were washed twice using PBS and some cells were harvested for quantification of integrated proviral DNA using real time PCR (nested Alu-LTR PCR, (Butler et al., 2001; Lewin et al., 2008) normalized for input DNA by qPCR for the CCR5 gene as previously described (Zhang et al., 1999). Other cells were reseeded in the presence of 10 nM PMA (Sigma-Aldrich) together with 10 μg/mL PHA (Sigma-Aldrich) or left untreated. PHA activated feeder peripheral blood mononuclear cells (PBMCs) were added 24 h after the activating stimulus to amplify virus replication and enhance detection of the infection (Saleh et al., 2011). […]
# HIV-1 = test: 'late' IC50 stated in legend of FIG. 8; assay type: cell-based; conditions: Human immunodeficiency virus 1
# [3] = tested on: HIV-based vector integration sites in SupT1 cells; test: Integration frequency near safe harbor criteria; assay type: cell-based
# [4] = tested on: single-round HIV-based lentiviral vector in SupT1 cells; test: Transduction efficiency of single-round HIV-based lentiviral vector (eGFP flow cytometry); assay type: cell-based; conditions: dilution series, data not shown
# From the text: In a next step we employed the recently developed LEDGINs, small molecules that inhibit LEDGF/p75-IN interaction and inhibit integration of HIV provirus (Christ et al., 2010, above) to investigate the impact of LEDGIN treatment on the HIV reservoir in cell culture. SupT1 cells were transduced with a single-round HIV-based lentiviral vector expressing the enhanced Green Fluorescent Protein (eGFP) reporter protein and treated with a dilution series of LEDGIN CX014442 (Christ et al 2012, above). […] In a first step, we determined integration site distribution of HIV-based viral vector integration sites (Gijsbers et al., 2009; Marshall et al., 2007). The number of integration sites is indicated for each data set (Table 2). First, we analysed lentiviral integration relative to a set of genomic features.
# [5] = tested on: HIV OGH double reporter virus in SupT1 cells; assay type: cell-based, HIV-1; conditions: SupT1, 3 days post infection, increasing concentrations
# [6] = tested on: HIV-OGH double reporter virus in SupT1 cells; test: Reactivation with TNFα, SupT1 cells infected with HIV-OGH double reporter virus; assay type: cell-based, HIV-1; conditions: SupT1, 50 μM
# Method: To corroborate these findings SupT1 cells were infected with the HIV-OGH double reporter virus under different LEDGIN (CX014442) concentrations. SupT1 cells were infected and reactivated under conditions similar to the experiment with HIV tCD34 (FIGS. 2 and 5). Data are represented in FIG. 6. Two different virus dilutions are depicted in panel A and B. In both graphs the percentage eGFP+, mKO2+ cells and overall % mKO2 positive cells is plotted after stimulation with DMSO or TNFα for 24 h. The dashed lines show an increase in percentage of eGFP+, mKO2+ cells after stimulation with TNFα compared to DMSO, while the overall percentage of mKO2 positive cells remains constant. LEDGIN treatment reduces the reactivation of eGFP+, mKO2+ cells in a concentration-dependent manner, with 50 μM of CX014442 reducing reactivation to only 1.5-2 fold (FIG. 6C).
# 11 days post infection the infected cells were reactivated from latency using TNFalpha (10 ng/mL, Immunosource), SAHA (0.3 to 3 μM, AIDS reagents), prostratin (5 μM, AIDS reagents) or PMA (0.3 μM, AIDS reagents) 24 hours prior to analysis by flow cytometry. Time courses and drug concentrations are indicated in the individual experiments. LEDGINs were synthesized by the Cistim/CD3-facility (courtesy of Dr. A. Marchand).
# [7] = tested on: OGH reporter virus in activated primary CD4+ T-cells; conditions: 3 days post infection, trend
# From the text: Peripheral Blood Mononuclear cells (PBMCs) were purified and CD4+ T-cells selectively enriched using Bi-specific MAb CD3.8 (AIDS reagents) for 5 days and infected with the OGH reporter virus. HIV infection was monitored 3 days post infection using flow cytometry analysis (FIG. 4).
# Human PBMCs were purified, selectively enriched for CD4+ T cells using Bi-specific MAb CD3.8 and infected with the OGH reporter virus, in the presence or absence of LEDGINs (FIG. 7a,b).
# Human peripheral blood mononuclear cells (PBMCs), obtained from the Red Cross Blood transfusion Center (Mechelen, Belgium) according to approved bioethical guidelines of our institute (S57175-IRB00002047), were purified from fresh buffy coats using lymphoprep density gradient centrifugation (Stem cell technologies). The CD4+ T cells were selectively enriched using Bi-specific MAb CD3.8 (0.5 μg/mL, AIDS reagents) for 5 days. Cells were cultured in RPMI 1640, 15% v/v FBS, 0.1% v/v Gentamicin, 100 U/ml IL-2 (Peprotech) (T-cell medium, TCM). Enriched total CD4+ primary T cells were infected with single round reporter virus for 2 h at 37° C., washed twice in TCM and reseeded in medium containing different concentrations of LEDGIN CX014442. HIV infection was monitored 48 h post infection using flow cytometry analysis.
# [8] = tested on: HIV-based vector integration sites in SupT1 cells; test: Integration site distribution of HIV-based vector near mapped genomic features; assay type: cell-based
# [9] = tested on: NL4-3.tCD34.R-.E-/VSV-G latent provirus in Nalm wt (+/c) cells; assay type: cell-based, HIV
# [10] = tested on: NL4-3.tCD34.R-.E-/VSV-G latent provirus in Nalm LEDGF/p75 KO (−/−) cells; assay type: cell-based, HIV
# [11] = compound concentration 0.78125 μM
# [12] = compound concentration 1.5625 μM
# [13] = compound concentration 3.125 μM
structure (smiles),measurement,setting,value
"CCCC(C(=O)O)c1c(C)nc2ccc(Cl)cc2c1-c1ccccc1 (centres unmarked) [CX014442, 2-(6-chloro-2-methyl-4-phenylquinolin-3-yl)pentanoic acid]",EC50,[1],7.24 µM
same,number of proviral DNA copies,"[2]; 4 days p.i., submicromolar concentrations",reduced
same,p24 production upon reactivation with PMA and PHA,"[2]; day 7 p.i., average of two donors",reduced
same,IC50,HIV-1,0.06 µM
same,% in UCR,[3]; [11],6.36%
same,% in transcript. Units,[3]; [11],74.95%
same,% within 50 kb of TSS,[3]; [11],31.13%
same,% within 300 kb of miRNAs,[3]; [11],25.54%
same,% within 300 kb of onco,[3]; [11],38.15%
same,Total % safe,[3]; [11],11.14%
same,% in UCR,[3]; [12],7.24%
same,% in transcript. Units,[3]; [12],75.11%
same,% within 50 kb of TSS,[3]; [12],29.28%
same,% within 300 kb of miRNAs,[3]; [12],22.52%
same,% within 300 kb of onco,[3]; [12],35.47%
same,Total % safe,[3]; [12],10.36%
same,% in UCR,[3]; [13],7.77%
same,% in transcript. Units,[3]; [13],71.91%
same,% within 50 kb of TSS,[3]; [13],28.57%
same,% within 300 kb of miRNAs,[3]; [13],23.34%
same,% within 300 kb of onco,[3]; [13],35.45%
same,Total % safe,[3]; [13],11.31%
same,% in UCR,[3]; compound concentration 6.25 μM,6.03%
same,% in transcript. Units,[3]; compound concentration 6.25 μM,70.48%
same,% within 50 kb of TSS,[3]; compound concentration 6.25 μM,29.46%
same,% within 300 kb of miRNAs,[3]; compound concentration 6.25 μM,21.76%
same,% within 300 kb of onco,[3]; compound concentration 6.25 μM,33.03%
same,Total % safe,[3]; compound concentration 6.25 μM,13.32%
same,% in UCR,[3]; compound concentration 12.5 μM,9.39%
same,% in transcript. Units,[3]; compound concentration 12.5 μM,67.42%
same,% within 50 kb of TSS,[3]; compound concentration 12.5 μM,31.33%
same,% within 300 kb of miRNAs,[3]; compound concentration 12.5 μM,24.89%
same,% within 300 kb of onco,[3]; compound concentration 12.5 μM,33.03%
same,Total % safe,[3]; compound concentration 12.5 μM,13.24%
same,% in UCR,[3]; compound concentration 25 μM,6.95%
same,% in transcript. Units,[3]; compound concentration 25 μM,66.06%
same,% within 50 kb of TSS,[3]; compound concentration 25 μM,29.80%
same,% within 300 kb of miRNAs,[3]; compound concentration 25 μM,21.52%
same,% within 300 kb of onco,[3]; compound concentration 25 μM,35.26%
same,Total % safe,[3]; compound concentration 25 μM,14.57%
same,% in UCR,[3]; compound concentration 50 μM,5.98%
same,% in transcript. Units,[3]; compound concentration 50 μM,59.57%
same,% within 50 kb of TSS,[3]; compound concentration 50 μM,32.54%
same,% within 300 kb of miRNAs,[3]; compound concentration 50 μM,22.25%
same,% within 300 kb of onco,[3]; compound concentration 50 μM,35.65%
same,Total % safe,[3]; compound concentration 50 μM,16.51%
same,% eGFP positive cells (transduction efficiency),[4],dose-dependent decrease
same,"% eGFP+, mKO2+ cells",[5],dose dependent decrease
same,overall % mKO2 positive cells,[5],dose dependent decrease
same,"reactivation of eGFP+, mKO2+ cells after TNFα relative to DMSO",[6],1.5-2 fold
same,% latently infected cells,[7],increased
same,% CpG within 2 kb,[8]; compound concentration 0.54 μM,2.33%
same,% CpG within 4 kb,[8]; compound concentration 0.54 μM,5.83%
same,% DHS within 2 kb,[8]; compound concentration 0.54 μM,24.07%
same,% DHS within 4 kb,[8]; compound concentration 0.54 μM,39.94%
same,% TSS within 2 kb,[8]; compound concentration 0.54 μM,2.00%
same,% TSS within 4 kb,[8]; compound concentration 0.54 μM,5.92%
same,in RefGene,[8]; compound concentration 0.54 μM,70.58%
same,% CpG within 2 kb,[8]; compound concentration 1.5 μM,2.37%
same,% CpG within 4 kb,[8]; compound concentration 1.5 μM,5.79%
same,% DHS within 2 kb,[8]; compound concentration 1.5 μM,20.94%
same,% DHS within 4 kb,[8]; compound concentration 1.5 μM,37.18%
same,% TSS within 2 kb,[8]; compound concentration 1.5 μM,2.41%
same,% TSS within 4 kb,[8]; compound concentration 1.5 μM,5.88%
same,in RefGene,[8]; compound concentration 1.5 μM,70.37%
same,% CpG within 2 kb,[8]; compound concentration 3 μM,1.73%
same,% CpG within 4 kb,[8]; compound concentration 3 μM,5.39%
same,% DHS within 2 kb,[8]; compound concentration 3 μM,21.49%
same,% DHS within 4 kb,[8]; compound concentration 3 μM,37.55%
same,% TSS within 2 kb,[8]; compound concentration 3 μM,1.97%
same,% TSS within 4 kb,[8]; compound concentration 3 μM,5.59%
same,in RefGene,[8]; compound concentration 3 μM,66.60%
same,% CpG within 2 kb,[8]; compound concentration 6 μM,2.97%
same,% CpG within 4 kb,[8]; compound concentration 6 μM,6.39%
same,% DHS within 2 kb,[8]; compound concentration 6 μM,21.78%
same,% DHS within 4 kb,[8]; compound concentration 6 μM,37.12%
same,% TSS within 2 kb,[8]; compound concentration 6 μM,3.03%
same,% TSS within 4 kb,[8]; compound concentration 6 μM,6.45%
same,in RefGene,[8]; compound concentration 6 μM,65.23** %
same,% CpG within 2 kb,[8]; compound concentration 12 μM,3.39%
same,% CpG within 4 kb,[8]; compound concentration 12 μM,7.35%
same,% DHS within 2 kb,[8]; compound concentration 12 μM,23.6%
same,% DHS within 4 kb,[8]; compound concentration 12 μM,38.57%
same,% TSS within 2 kb,[8]; compound concentration 12 μM,3.96** %
same,% TSS within 4 kb,[8]; compound concentration 12 μM,7.58%
same,in RefGene,[8]; compound concentration 12 μM,61.88*** %
same,% CpG within 2 kb,[8]; compound concentration 25 μM,4.97** %
same,% CpG within 4 kb,[8]; compound concentration 25 μM,10.26** %
same,% DHS within 2 kb,[8]; compound concentration 25 μM,22.19%
same,% DHS within 4 kb,[8]; compound concentration 25 μM,40.07%
same,% TSS within 2 kb,[8]; compound concentration 25 μM,4.30** %
same,% TSS within 4 kb,[8]; compound concentration 25 μM,8.94%
same,in RefGene,[8]; compound concentration 25 μM,60.93*** %
same,% CpG within 2 kb,[8]; compound concentration 50 μM,5.50%
same,% CpG within 4 kb,[8]; compound concentration 50 μM,11.72*** %
same,% DHS within 2 kb,[8]; compound concentration 50 μM,26.08%
same,% DHS within 4 kb,[8]; compound concentration 50 μM,40.67%
same,% TSS within 2 kb,[8]; compound concentration 50 μM,6.94%
same,% TSS within 4 kb,[8]; compound concentration 50 μM,12.68*** %
same,in RefGene,[8]; compound concentration 50 μM,54.55%
same,epigenetic preference of integration for transcriptionally active regions,"[8]; histone marks, data not shown",inverted in a dose dependent manner
same,concentration at which a significant difference compared to wt in global integration preferences was reached,[8]; shift out of transcriptionally active regions,above 12 μM
"O=C(CCCCCCC(=O)Nc1ccccc1)NO [SAHA, Suberoylanilide Hydroxamic acid]",reactivation of tCD34 expression,[9],3- to 4 fold
same,reactivation of tCD34 expression,[10],2 fold
